Reference: patent publication US20240116892A1, “HETEROCYCLIC AMIDE AND UREA COMPOUNDS AS JAK2 INHIBITORS” (Ajax Therapeutics, Inc., priority 2022, published 2024)

Molecular target: JAK2 (JH1 domain-catalytic, Y1007F, Y1008F) kinase (Homo sapiens (Human), UniProt O60674, Y1007F/Y1008F)
Experiment: JAK2 JH1 Domain Binding Assay
Settings: qPCR readout
Experimental: JAK2 (JH1 domain-catalytic, Y1007F, Y1008F) kinase was expressed as N-terminal fusion to the DNA binding domain of NFkB in transiently transfected HEK293 cells and subsequently tagged with DNA for qPCR detection. Streptavidin-coated magnetic beads were treated with biotinylated small molecule ligands for 30 minutes at room temperature to generate affinity resins for kinase assays. The liganded beads were blocked with excess biotin and washed with blocking buffer (SeaBlock (Pierce), 1% BSA, 0.05% Tween 20, 1 mmol/L DTT) to remove unbound ligand and to reduce nonspecific phage binding. Binding reactions were assembled by combining kinases, liganded affinity beads, and test compounds in 1× binding buffer (1× PBS, 0.05% Tween 20, 0.1% BSA, 1 mmol/L DTT). Test compound was prepared as 111× stocks in 100% DMSO and directly diluted into the assay wells. All reactions were performed in polypropylene 384-well plates in a final volume of 0.02 mL. The assay plates were incubated at room temperature with shaking for 1 hour and the affinity beads were washed with wash buffer (1× PBS, 0.05% Tween 20). The beads were then re-suspended in elution buffer (1× PBS, 0.05% Tween 20, 0.5 μmol/L non-biotinylated affinity ligand) and incubated at room temperature with shaking for 30 minutes. The kinase concentration in the eluate was measured by qPCR.

Sequence of JAK2 (JH1 domain-catalytic, Y1007F, Y1008F) kinase (O60674 849-1124 Y1007F/Y1008F): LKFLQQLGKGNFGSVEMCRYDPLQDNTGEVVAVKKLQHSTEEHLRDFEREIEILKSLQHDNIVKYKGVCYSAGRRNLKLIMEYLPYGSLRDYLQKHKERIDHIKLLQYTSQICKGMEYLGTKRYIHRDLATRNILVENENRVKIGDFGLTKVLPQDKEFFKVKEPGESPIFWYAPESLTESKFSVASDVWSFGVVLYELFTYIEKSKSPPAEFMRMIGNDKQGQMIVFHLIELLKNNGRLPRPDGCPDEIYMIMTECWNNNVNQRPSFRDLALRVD

First: CN1CCN(c2n[nH]c3ncc(N4CC[C@H](N(C)C(=O)Nc5cc(C(F)(F)F)cn(C)c5=O)C(F)(F)C4)cc23)CC1 (single isomer, unassigned) [Example I-154-b, (R)- or (S)-1-(3,3-difluoro-1-(3-(4-methylpiperazin-1-yl)-1H-pyrazolo[3,4-b]pyridin-5-yl)piperidin-4-yl)-1-methyl-3-(1-methyl-2-oxo-5-(trifluoromethyl)-1,2-dihydropyridin-3-yl)urea]
Second: CN(C(=O)Nc1cc(C(F)(F)F)cn(C)c1=O)[C@@H]1CCN(c2cnc3[nH]cc(N4CCOCC4)c3n2)CC1(F)F (single isomer, unassigned) [Example I-155-a]
The Kd of the first is lower: less than 10 nM for the first, 10 to 50 nM for the second.

First: CN(C(=O)Nc1cc(C(F)(F)F)cn(C)c1=O)[C@H]1CCN(c2cnc3[nH]cc(N4CCOCC4)c3n2)CC1(F)F (single isomer, unassigned) [Example I-155-b]
Second: CN(C(=O)Nc1cc(C(F)(F)F)cn(C)c1=O)[C@H]1CCN(c2cnc3[nH]ncc3c2)C[C@@H]1F (stereo in doubt) [Example I-61-a, 1-((3S,4S)-3-fluoro-1-(1H-pyrazolo[3,4-b]pyridin-5-yl)piperidin-4-yl)-1-methyl-3-(1-methyl-2-oxo-5-(trifluoromethyl)-1,2-dihydropyridin-3-yl)urea]
The Kd of the first is higher: 10 to 50 nM for the first, less than 10 nM for the second.

`CN(C(=O)Nc1cc(C(F)(F)F)cn(C)c1=O)[C@@H]1CC=C(c2cnc3[nH]ncc3n2)CC1` (single isomer, unassigned) [Example I-160-a, (S)- or (R)-1-(4-(1H-pyrazolo[3,4-b]pyrain-5-yl)cyclohex-3-en-1-yl)-1-methyl-3-(2-methyl-2-oxo-5-(trifluoromethyl)-1,2-dihydropyridin-3-yl)urea] and `CN(C(=O)Nc1cc(C(F)(F)F)cn(C)c1=O)[C@H]1CC=C(c2cnc3[nH]ncc3n2)CC1` (single isomer, unassigned) [Example I-160-b, (S)- or (R)-1-(4-(1H-pyrazolo[3,4-b]pyrain-5-yl)cyclohex-3-en-1-yl)-1-methyl-3-(2-methyl-2-oxo-5-(trifluoromethyl)-1,2-dihydropyridin-3-yl)urea] cannot be ordered by Kd: less than 10 nM for the first, less than 10 nM for the second.

`COc1n[nH]c2ncc(N3CC[C@H]4[C@H](C3)OCCN4C(=O)Nc3cc(C(F)(F)F)cn(C)c3=O)cc12` (single isomer, unassigned) [Example I-169-a] and `CN(C(=O)Nc1cc(C(F)(F)F)cn(C)c1=O)[C@H]1CCN(c2cnc3[nH]n(C)c(=O)c3c2)CC1F` (stereo in doubt) [Example I-90-a, 1-((3R,4S)-3-fluoro-1-(2-methyl-3-oxo-2,3-dihydro-1H-pyrazolo[3,4-b]pyridin-5-yl)piperidin-4-yl)-1-methyl-3-(1-methyl-2-oxo-5-(trifluoromethyl)-1,2-dihydropyridin-3-yl)urea] fall in the same range of Kd: 10 to 50 nM for the first, 10 to 50 nM for the second.

`COc1n[nH]c2ncc(N3CC[C@H]4[C@H](C3)OCCN4C(=O)Nc3cc(C(F)(F)F)cn(C)c3=O)cc12` (single isomer, unassigned) [Example I-169-b] and `CN(C(=O)Nc1cc(C(F)(F)F)cn(C)c1=O)[C@H]1CCN(c2cnc3[nH]ncc3c2)C[C@H]1F` (stereo in doubt) [Example I-62-a, 1-((3R,4S)-3-fluoro-1-(1H-pyrazolo[3,4-b]pyridin-5-yl)piperidin-4-yl)-1-methyl-3-(1-methyl-2-oxo-5-(trifluoromethyl)-1,2-dihydropyridin-3-yl)urea] cannot be ordered by Kd: less than 10 nM for the first, less than 10 nM for the second.

Compared with `CN(C(=O)Nc1cc(C2CC2)cn([C@H]2CCCOC2)c1=O)C1CCN(c2cnc3[nH]ncc3c2)CC1` (single isomer, unassigned) [Example I-183-a, (S)- or (R)-1-(1-(1H-pyrazolo[3,4-b]pyridin-5-yl)piperidin-4-yl)-3-(5-cyclopropyl-2-oxo-1-(tetrahydro-2H-pyran-3-yl)-1,2-dihydropyridin-3-yl)-1-methylurea], `Cc1cc(NC(=O)CC2CCN(c3cnccn3)CC2)cc(C(F)(F)F)c1` [Example I-1, N-(3-methyl-5-(trifluoromethyl)phenyl)-2-(1-(pyrazin-2-yl)piperidin-4-yl)acetamide] is higher in Kd: less than 10 nM for the first, 1000 to 5000 nM for the second. The first binds more tightly here.
